# Assay results as given in ChEMBL document CHEMBL1155053, “Discovery of new Gram-negative antivirulence drugs: structure and properties of novel E. coli WaaC inhibitors” (Bioorg Med Chem Lett, 2008).
# Experiment: Inhibition of Escherichia coli heptosyltransferase Waac
row,Structure (SMILES),IC50 [µM]
1,CC1=NN(c2cccc(C(=O)O)c2)C(=O)/C1=C\c1ccc(-c2ccc(C(=O)O)cc2)o1,3
2,CC1=NN(c2ccc(C(=O)O)cc2)C(=O)/C1=C\c1ccc(-c2ccccc2)o1,55
3,CC1=NN(c2ccc(C(=O)O)cc2)C(=O)/C1=C\c1ccc(-c2ccc(Cl)c(C(=O)O)c2)o1,3.1
4,CC1=NN(c2cccc(C(=O)O)c2)C(=O)/C1=C\c1ccc(-c2ccc(C(=O)O)c(C)c2)o1,31
5,CC1=NN(c2cccc(C)c2)C(=O)/C1=C\c1ccc(-c2cccc(C(=O)O)c2)o1 (mixture of isomers),> 100
6,CC1=NN(c2ccc(C(=O)O)cc2)C(=O)/C1=C\c1ccc(-c2ccc(C(=O)O)cc2)o1 (mixture of isomers),51
7,CC1=NN(c2ccc(C(=O)O)cc2)C(=O)/C1=C\c1ccc(-c2cccc(C(N)=O)c2)o1 (mixture of isomers),18
8,CC1=NN(c2cccc(C(=O)O)c2)C(=O)/C1=C\c1ccc(-c2ccc(S(N)(=O)=O)cc2)o1 (mixture of isomers),> 100
9,COC(=O)c1cccc(-c2ccc(/C=C3\C(=O)N(c4cccc(C(=O)O)c4)N=C3C)o2)c1 (mixture of isomers),49
10,CC1=NN(c2cccc(C(=O)O)c2)C(=O)/C1=C\c1ccc(-c2cccc(C(=O)O)c2)o1 (mixture of isomers),2
11,CC(=O)c1cccc(-c2ccc(/C=C3\C(=O)N(c4cccc(C(=O)O)c4)N=C3C)o2)c1 (mixture of isomers),15
12,CC1=NN(c2ccccc2)C(=O)/C1=C\c1ccc(-c2ccc(Cl)c(C(=O)O)c2)o1 (mixture of isomers),> 100
13,COC(=O)c1cccc(N2N=C(C)/C(=C/c3ccc(-c4cccc(C(=O)O)c4)o3)C2=O)c1 (mixture of isomers),> 100
14,CC1=NN(c2cccc(C(=O)O)c2)C(=O)/C1=C\c1ccc(-c2ccc(Cl)c(C(=O)O)c2)o1 (mixture of isomers),1
